Measured values from patent US9376425B2, “Heterocyclic compounds as MDM2 inhibitors for the treatment of cancer” (AMGEN INC., priority 2011, dated 2016).

Target: T1, human MDM2 (GST-hMDM2 1-188), interaction with biotinylated-p53 (1-83) (Homo sapiens, UniProt Q00987)
T1 construct: Amino acid residues 1-188 of human MDM2 were expressed; made in house; host or cells: Escherichia coli
Assay: improved HTRF assay (HTRF2 assay), inhibition of HDM2-p53 interaction
Format: binding
Conditions: 0.2 nM GST-hMDM2, 0.5 nM biotinylated-p53, 100 mM KF
Summary of the method: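 GST-hMDM2 preincubated 20 min at RT with serially diluted compound, then biotinylated p53 (1-83, E. coli) added for 60 min. Detection with SA-XLent, anti-GST cryptate and KF, equilibrated >4 h; final DMSO 2%. TR-FRET read; % inhibition calculated relative to nutlin-3.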

T1 sequence (Q00987 1-188): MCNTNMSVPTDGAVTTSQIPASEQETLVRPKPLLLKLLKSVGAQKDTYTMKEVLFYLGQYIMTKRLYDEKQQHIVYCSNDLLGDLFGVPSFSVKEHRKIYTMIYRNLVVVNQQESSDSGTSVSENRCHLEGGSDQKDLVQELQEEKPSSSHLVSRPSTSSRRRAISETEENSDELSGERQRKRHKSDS

SMILES	IC50
CC[C@@H](CS(=O)(=O)C(C)(C)C)N1C(=O)[C@@H](CNC(C)=O)O[C@H](c2cccc(Cl)c2)[C@H]1c1ccc(Cl)cc1 (single isomer, unassigned) [Example 380, N-(((2R,5R,6R)-4-((S)-1-(tert-Butylsulfonyl)butan-2-yl)-6-(3-chlorophenyl)-5-(4-chlorophenyl)-3-oxomorpholin-2-yl)methyl)acetamide or N-(((2S,5R,6R)-4-((S)-1-(tert-butylsulfonyl)butan-2-yl)-6-(3-chlorophenyl)-5-(4-chlorophenyl)-3-oxomorpholin-2-yl)methyl)acetamide]	48 nM
CC(C)(C)S(=O)(=O)C[C@H](C1CC1)N1C(=O)[C@@H](Cc2cnn[nH]2)O[C@H](c2cccc(Cl)c2)[C@H]1c1ccc(Cl)cc1 (single isomer, unassigned) [Example 385, (2R,5R,6R)-2-((1H-1,2,3-Triazol-5-yl)methyl)-4-((S)-2-(tert-butylsulfonyl)-1-cyclopropylethyl)-6-(3-chlorophenyl)-5-(4-chlorophenyl)morpholin-3-one or (2S,5R,6R)-2-((1H-1,2,3-triazol-5-yl)methyl)-4-((S)-2-(tert-butylsulfonyl)-1-cyclopropylethyl)-6-(3-chlorophenyl)-5-(4-chlorophenyl)morpholin-3-one]	4 nM
CC(C)(C)S(=O)(=O)C[C@H](C1CC1)N1C(=O)[C@@H](Cc2cnn[nH]2)O[C@H](c2cccc(Cl)c2)[C@H]1c1ccc(Cl)cc1 (single isomer, unassigned) [Example 386, (2R,5R,6R)-2-((1H-1,2,3-Triazol-5-yl)methyl)-4-((S)-2-(tert-butylsulfonyl)-1-cyclopropylethyl)-6-(3-chlorophenyl)-5-(4-chlorophenyl)morpholin-3-one or (2S,5R,6R)-2-((1H-1,2,3-triazol-5-yl)methyl)-4-((S)-2-(tert-butylsulfonyl)-1-cyclopropylethyl)-6-(3-chlorophenyl)-5-(4-chlorophenyl)morpholin-3-one]	13 nM
CC(C)(C)S(=O)(=O)C[C@H](C1CC1)N1C(=O)[C@@H](CC#N)O[C@H](c2cccc(Cl)c2)[C@H]1c1ccc(Cl)cc1 (single isomer, unassigned) [Example 387, 2-((2R,5R,6R)-4-((S)-2-(tert-Butylsulfonyl)-1-cyclopropylethyl)-6-(3-chlorophenyl)-5-(4-chlorophenyl)-3-oxomorpholin-2-yl)acetonitrile or 2-((2S,5R,6R)-4-((S)-2-(tert-butylsulfonyl)-1-cyclopropylethyl)-6-(3-chlorophenyl)-5-(4-chlorophenyl)-3-oxomorpholin-2-yl)acetonitrile]	62 nM
CC(C)(C)S(=O)(=O)C[C@H](C1CC1)N1C(=O)[C@@H](CC#N)O[C@H](c2cccc(Cl)c2)[C@H]1c1ccc(Cl)cc1 (single isomer, unassigned) [Example 388, 2-((2R,5R,6R)-4-((S)-2-(tert-Butylsulfonyl)-1-cyclopropylethyl)-6-(3-chlorophenyl)-5-(4-chlorophenyl)-3-oxomorpholin-2-yl)acetonitrile or 2-((2S,5R,6R)-4-((S)-2-(tert-butylsulfonyl)-1-cyclopropylethyl)-6-(3-chlorophenyl)-5-(4-chlorophenyl)-3-oxomorpholin-2-yl)acetonitrile]	28 nM
CC(C)(C)S(=O)(=O)C[C@H](C1CC1)N1C(=O)[C@@H](Cc2ncn[nH]2)O[C@H](c2cccc(Cl)c2)[C@H]1c1ccc(Cl)cc1 (single isomer, unassigned) [Example 389, (2R,5R,6R)-2-((1H-1,2,4-Triazol-5-yl)methyl)-4-((S)-2-(tert-butylsulfonyl)-1-cyclopropylethyl)-6-(3-chlorophenyl)-5-(4-chlorophenyl)morpholin-3-one or (2S,5R,6R)-2-((1H-1,2,4-triazol-5-yl)methyl)-4-((S)-2-(tert-butylsulfonyl)-1-cyclopropylethyl)-6-(3-chlorophenyl)-5-(4-chlorophenyl)morpholin-3-one]	19 nM
CC(C)(C)S(=O)(=O)C[C@H](C1CC1)N1C(=O)[C@@H](Cc2ncn[nH]2)O[C@H](c2cccc(Cl)c2)[C@H]1c1ccc(Cl)cc1 (single isomer, unassigned) [Example 390, (2R,5R,6R)-2-((1H-1,2,4-Triazol-5-yl)methyl)-4-((S)-2-(tert-butylsulfonyl)-1-cyclopropylethyl)-6-(3-chlorophenyl)-5-(4-chlorophenyl)morpholin-3-one or (2S,5R,6R)-2-((1H-1,2,4-triazol-5-yl)methyl)-4-((S)-2-(tert-butylsulfonyl)-1-cyclopropylethyl)-6-(3-chlorophenyl)-5-(4-chlorophenyl)morpholin-3-one]	11 nM
Cc1n[nH]c(C[C@H]2O[C@H](c3cccc(Cl)c3)[C@@H](c3ccc(Cl)cc3)N([C@H](CN(c3ccccc3F)S(=O)(=O)C3CC3)C3CC3)C2=O)n1 (single isomer, unassigned) [Example 392, N-((S)-2-((2R,3R,6R)-2-(3-Chlorophenyl)-3-(4-chlorophenyl)-6-((3-methyl-1H-1,2,4-triazol-5-yl)methyl)-5-oxomorpholino)-2-cyclopropylethyl)-N-(2-fluorophenyl)cyclopropanesulfonamide or N-((S)-2-((2S,3R,6R)-2-(3-chlorophenyl)-3-(4-chlorophenyl)-6-((3-methyl-1H-1,2,4-triazol-5-yl)methyl)-5-oxomorpholino)-2-cyclopropylethyl)-N-(2-fluorophenyl)cyclopropanesulfonamide]	< 1 nM
Cc1n[nH]c(C[C@H]2O[C@H](c3cccc(Cl)c3)[C@@H](c3ccc(Cl)cc3)N([C@H](CN(c3ccccc3F)S(=O)(=O)C3CC3)C3CC3)C2=O)n1 (single isomer, unassigned) [Example 393, N-((S)-2-((2R,3R,6R)-2-(3-Chlorophenyl)-3-(4-chlorophenyl)-6-((3-methyl-1H-1,2,4-triazol-5-yl)methyl)-5-oxomorpholino)-2-cyclopropylethyl)-N-(2-fluorophenyl)cyclopropanesulfonamide or N-((S)-2-((2S,3R,6R)-2-(3-chlorophenyl)-3-(4-chlorophenyl)-6-((3-methyl-1H-1,2,4-triazol-5-yl)methyl)-5-oxomorpholino)-2-cyclopropylethyl)-N-(2-fluorophenyl)cyclopropanesulfonamide]	< 1 nM
O=C1[C@@H](Cc2cnn[nH]2)O[C@H](c2cccc(Cl)c2)[C@@H](c2ccc(Cl)cc2)N1[C@H](CN(c1ccccc1F)S(=O)(=O)C1CC1)C1CC1 (single isomer, unassigned) [Example 394, N-((S)-2-((2R,5R,6R)-2-((1H-1,2,3-Triazol-5-yl)methyl)-6-(3-chlorophenyl)-5-(4-chlorophenyl)-3-oxomorpholino)-2-cyclopropylethyl)-N-(2-fluorophenyl)cyclopropanesulfonamide or N-((S)-2-((2S,5R,6R)-2-((1H-1,2,3-triazol-5-yl)methyl)-6-(3-chlorophenyl)-5-(4-chlorophenyl)-3-oxomorpholino)-2-cyclopropylethyl)-N-(2-fluorophenyl)cyclopropanesulfonamide]	1 nM
O=C1[C@@H](Cc2cnn[nH]2)O[C@H](c2cccc(Cl)c2)[C@@H](c2ccc(Cl)cc2)N1[C@H](CN(c1ccccc1F)S(=O)(=O)C1CC1)C1CC1 (single isomer, unassigned) [Example 395, N-((S)-2-((2R,5R,6R)-2-((1H-1,2,3-Triazol-5-yl)methyl)-6-(3-chlorophenyl)-5-(4-chlorophenyl)-3-oxomorpholino)-2-cyclopropylethyl)-N-(2-fluorophenyl)cyclopropanesulfonamide or N-((S)-2-((2S,5R,6R)-2-((1H-1,2,3-triazol-5-yl)methyl)-6-(3-chlorophenyl)-5-(4-chlorophenyl)-3-oxomorpholino)-2-cyclopropylethyl)-N-(2-fluorophenyl)cyclopropanesulfonamide]	1 nM
O=C1[C@@H](Cc2ncn[nH]2)O[C@H](c2cccc(Cl)c2)[C@@H](c2ccc(Cl)cc2)N1[C@H](CN(c1ccccc1F)S(=O)(=O)C1CC1)C1CC1 (single isomer, unassigned) [Example 396, N-((S)-2-((2R,5R,6R)-2-((1H-1,2,4-Triazol-5-yl)methyl)-6-(3-chlorophenyl)-5-(4-chlorophenyl)-3-oxomorpholino)-2-cyclopropylethyl)-N-(2-fluorophenyl)cyclopropanesulfonamide or N-((S)-2-((2S,5R,6R)-2-((1H-1,2,4-triazol-5-yl)methyl)-6-(3-chlorophenyl)-5-(4-chlorophenyl)-3-oxomorpholino)-2-cyclopropylethyl)-N-(2-fluorophenyl)cyclopropanesulfonamide]	2 nM
O=C1[C@@H](Cc2ncn[nH]2)O[C@H](c2cccc(Cl)c2)[C@@H](c2ccc(Cl)cc2)N1[C@H](CN(c1ccccc1F)S(=O)(=O)C1CC1)C1CC1 (single isomer, unassigned) [Example 397, N-((S)-2-((2R,5R,6R)-2-((1H-1,2,4-Triazol-5-yl)methyl)-6-(3-chlorophenyl)-5-(4-chlorophenyl)-3-oxomorpholino)-2-cyclopropylethyl)-N-(2-fluorophenyl)cyclopropanesulfonamide or N-((S)-2-((2S,5R,6R)-2-((1H-1,2,4-triazol-5-yl)methyl)-6-(3-chlorophenyl)-5-(4-chlorophenyl)-3-oxomorpholino)-2-cyclopropylethyl)-N-(2-fluorophenyl)cyclopropanesulfonamide]	1 nM
